In US20260297542A1, “HERBICIDE RESISTANT PLANTS” (SYNGENTA CROP PROTECTION AG, priority 2023, published 2026):
Residue numbers refer to the chain shown, from its start. Where two headings read alike, the source gives them in different places.

Experiments:
[1] = molecular target: T1, His-TEV-AtPP01 ΔcTP V030 (SEQ ID NO: 374) (Arabidopsis thaliana, UniProt P55826, S305L/Y426V); assay: PPO fluorescence IC50 assay, partially purified enzyme; format: biochemical
T1 construct: with cTPs removed; made in house; host or cells: E. coli BL21 (DE3), His GraviTrap, partially purified
T1 sequence (P55826 with tags, fused parts or gaps S305L/Y426V): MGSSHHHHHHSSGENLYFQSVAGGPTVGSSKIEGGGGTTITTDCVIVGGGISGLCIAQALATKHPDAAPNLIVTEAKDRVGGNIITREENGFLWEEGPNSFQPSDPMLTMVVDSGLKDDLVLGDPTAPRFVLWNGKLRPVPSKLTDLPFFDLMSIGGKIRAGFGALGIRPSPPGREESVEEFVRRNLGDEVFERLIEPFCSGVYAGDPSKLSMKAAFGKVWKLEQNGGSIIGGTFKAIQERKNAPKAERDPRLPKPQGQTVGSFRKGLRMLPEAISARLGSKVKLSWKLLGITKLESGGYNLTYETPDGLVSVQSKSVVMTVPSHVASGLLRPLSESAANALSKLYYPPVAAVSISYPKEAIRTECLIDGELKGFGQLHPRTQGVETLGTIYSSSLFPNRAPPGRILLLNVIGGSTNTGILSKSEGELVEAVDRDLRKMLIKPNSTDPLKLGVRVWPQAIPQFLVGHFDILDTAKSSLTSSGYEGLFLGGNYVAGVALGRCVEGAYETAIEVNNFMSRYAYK
From the text: (§1) A pET24 plasmid containing a DNA sequence encoding variants of AtPPO1 derived from Arabidopsis thaliana with cTPs removed and both a 6×His tag and TEV protease cleavage tag added at the N-terminus, codon-optimised for expression in E. coli, and under control of a T7 promoter, was synthesised by Twist Bioscience. The following variants were synthesised: WT AtPPO1 (SEQ ID NO: 370), AtPPO1 L479M (SEQ ID NO: 371), AtPPO1 L479N (SEQ ID NO: 372), AtPPO1 S305L Y426V (SEQ ID NO: 374) and AtPPO1 S305L Y426V L479M (SEQ ID NO: 373). This plasmid was expressed in E. coli BL21 (DE3) with 50 μg/mL kanamycin selection. 10 mL of overnight cultures grown at 37° C. were used to inoculate 1 L AIM (AIM-Terrific Broth Base including Trace elements, Formedium) in 2 L shake flasks. Cultures were grown at 37° C., 200 rpm for 3 hours and then overnight at 26° C. Cells were harvested centrifugation. 5-15 g of cell pellet was lysed in and resuspended in ratio of 1:1.5 in lysis buffer (20 mM Tris pH8, 500 mM sodium chloride, 10% glycerol, 1× complete Protease EDTA-free Inhibitor Tablet (Roche), 10 mM imidazole). The resuspension was sonicated at 75% using 10 cycles of 30 seconds, 40 seconds off. After sonication Triton X-100 was added to the lysates at a final concentration of 0.5%. The lysates were centrifuged at 20,000 rpm for 25 min at 4° C. Cleared lysates were loaded on His GraviTrap (Cytiva) columns, washed with 20 mL of lysis buffer and eluted in elution buffer (20 mM Tris pH8, 500 mM sodium chloride, 10% glycerol, 200 mM imidazole, 0.03% (v/v) Triton X-100). The eluate was desalted on a PD10 column and 2.5-3.2 mL was collected. Protein concentration was measured and calculated using the absorbance at 280 nm. Extracts were diluted 1 in 4 and 10 uL was analysed by SDS PAGE.
(§2) Partially purified Protoporphyrinogen Oxidase enzymes were assayed for activity using fluorescence adapted from the method of Shepherd & Dailey (Anal Biochem. 2005 344(1) 115-121). The assay was performed in black 384 well plates with a clear bottom and the total volume of the reaction mixture was 91 ul. The final assay mixture contained 100 mM K2HPO4 pH7.2, 1 mM Na2EDTA, 5 mM DTT, 20% glycerol (v/v), 0.05% Tween 20 (v/v), 1.1% DMSO (v/v), 1 uM protoporphyrinogen IX and 1.5 nM enzyme. Compounds were dissolved in DMSO at 1 mM and a 4-fold serial dilution carried out to give 8 rates. 1 ul was added to the assay mixture. This gave final compound concentrations of 11, 2.7, 0.69, 0.17, 0.04, 0.01, 0.002, 0.0007 uM. Enzyme and inhibitor were preincubated for 5 minutes prior to starting the reaction with the addition of the substrate. […] IC50s were calculated using GraphPad Prism 7.05 nonlinear regression (Table 6). Each compound was tested in duplicate.

[2] = molecular target: T2, His-TEV-AtPP01 ΔcTP L479N (SEQ ID NO: 372) (Arabidopsis thaliana, UniProt P55826, L479N); assay: as above; format: biochemical
T2 construct: with cTPs removed; made in house; host or cells: E. coli BL21 (DE3), His GraviTrap, partially purified
T2 sequence (P55826 with tags, fused parts or gaps L479N): T1 sequence (P55826 with tags, fused parts or gaps S305L/Y426V) with L290S, V411Y, L464N
From the text: as §1, §2

[3] = role: inhibitor, 1 uM protoporphyrinogen IX, <1.0 is below detection limit of assay

| SMILES | IC50 [1] | IC50 [2] | IC50 [1, 3] | IC50 [2, 3] |
| --- | --- | --- | --- | --- |
| C#CCN(C)c1c(C#N)cnn1-c1nn2c(c1Cl)CCCC2 [Pyraclonil] | 4350 nM | 1.5 nM |  |  |
| CCOC(=O)COc1cc(-c2nn(C)c(OC(F)F)c2Cl)c(F)cc1Cl [Pyraflufen-ethyl, pyraflufen-ethyl] | 18.6 nM | 0.8 nM |  |  |
| C#CCN1C(=O)COc2cc(F)c(N3C(=O)C4=C(CCCC4)C3=O)cc21 [Flumioxazin, flumioxazin] | 47.2 nM | 1 nM |  |  |
| CC(C)Oc1cc(-n2nc(C(C)(C)C)oc2=O)c(Cl)cc1Cl [Oxadiazaon] | 4600 nM | 6.1 nM |  |  |
| CCOC(=O)C1(C)CC(c2cc(-n3c(=O)cc(C(F)(F)F)n(C)c3=O)c(F)cc2Cl)=NO1 (centres unmarked) [Herbicide C, 3-(2-chloro-4-fluoro-5-(3-methyl-2,6-dioxo-4-trifluoromethyl-3,6-dihydropyrimidin-1(2H)-yl)phenyl)-5-methyl-4,5-dihydroisoxazole-5-carboxylic acid ethyl ester] | 92 nM | 0.9 nM |  |  |
| C#CCN1C(=O)C(F)(F)Oc2cc(F)c(-n3c(=O)n(C)c(=S)n(C)c3=O)cc21 [Herbicide B, trifludimoxazin] | 1.3 nM | 1 nM |  |  |
| C#CCOc1cc(-n2nc3n(c2=O)CCCC3)c(Cl)cc1Cl [Azafenadin] | 117 nM | 0.8 nM |  |  |
| CCOC(=O)[C@]1(C)CC(c2cc(-n3c(=O)n(C)c(=S)n(C)c3=O)c(F)cc2Cl)=NO1 [Herbicide D, ethyl (5S)-3-[2-chloro-5-(3,5-dimethyl-2,6-dioxo-4-thioxo-1,3,5-triazinan-1-yl)-4-fluoro-phenyl]-5-methyl-4H-isoxazole-5-carboxylate] | 269 nM | 0.8 nM |  |  |
| CS(=O)(=O)NC(=O)c1cc(Oc2ccc(C(F)(F)F)cc2Cl)ccc1[N+](=O)[O-] [Fomesafen, fomesafen] | 0.7 nM | 1.4 nM |  |  |
| C=CCOC(=O)C(C)(C)OC(=O)c1cc(-n2c(=O)cc(C(F)(F)F)n(C)c2=O)ccc1Cl [Butafenacil, butafenacil] | 11 nM | 0.9 nM |  |  |
| COC(=O)C(C)ON=Cc1cc(-n2c(=O)cc(C(F)(F)F)n(C)c2=O)c(F)cc1Cl (centres unmarked) [Flufenoximacil, flufenoximacil] |  |  | 717 nM | 0.8 nM |
| CCOC(=O)COc1ncccc1Oc1cc(-n2c(=O)cc(C(F)(F)F)n(C)c2=O)c(F)cc1Cl [Herbicide A, epyrifenacil] | 323 nM | 0.9 nM |  |  |
| CC(C)N(C)S(=O)(=O)NC(=O)c1cc(-n2c(=O)cc(C(F)(F)F)n(C)c2=O)c(F)cc1Cl [Herbicide E, saflufenacil] | 547 nM | 2.6 nM |  |  |
